Measurements taken from patent US4783452A, “Platinum coordination compounds” (Johnson Matthey Public Limited Company, priority 1985, dated 1988).

Tested on: ADJ/PC6 tumour
Test: anti-tumour activity against ADJ/PC6 tumour implanted into female Balb C- mice
Type: in vivo
Set-up: LD50: unit not given here
Conditions: for TI / ED90: ADJ/PC6 tumour; for ED90: in mg/kg (unit assumed)
Experimental: Compounds were administered both parenterally (IP) and orally (PO).

Compound	LD50 (IP (parenteral))	TI (IP (parenteral))	ED90 (IP (parenteral))	LD50 (PO (oral))	TI (PO (oral))	ED90 (PO (oral))
CC1(C)OC(CN)C(CN)O1.[Br][Pt][Br] (racemic) [cis-dibromo[4,5-bis(aminomethyl)-2,2-dimethyl-1,3-dioxolane]platinum (II)]	21	5.2	4	–	–	–
CC1(C)OC(CN)C(CN)O1.[Cl][Pt][Cl] [cis-dichloro[(4R,5R)-4,5-bis-(aminomethyl)-2,2-dimethyl-1,3-] [cis-dichloro[(4R,5R)-4,5-bis-(aminomethyl)-2,2-dimethyl-1,3-dioxolane]platinum (II)]	35	22.6	1.6	1100	122	9
CC1(C)OC(CN)C(CN)O1.[Cl][Pt][Cl] [cis-dichloro[(4S,5S)-4,5-bis-(aminomethyl)-2,2-dimethyl-1,3-] [cis-dichloro[(4S,5S)-4,5-bis-(aminomethyl)-2,2-dimethyl-1,3-dioxolane]platinum (II)]	35	23.9	1.46	1130	43.5	26
[Cl][Pt]1([Cl])[NH]CC2OC(c3ccccc3)OC2C[NH]1 [cis-dichloro[(4S,5S)-4,5-bis-(aminomethyl)-2-phenyl-1,3-dioxolane]platinum (II)]	> 800	> 26	30	> 1600	> 1	~ 1600
cis-dichloro[2,3-dihydroxy-1,2-diamino butane)-platinum (II) [reference compound]	> 400	> 1	380	> 800	–	–
